Test results: patent publication US20080009435A1, “Synthetic methods for aplidine and new antitumoral derivatives, methods of making and using them” (Pharma Mar, S.A., a Spain corporation, priority 2000, published 2008)
Like-named read-outs stand apart in the source and are kept apart here. *1 amine or outer side, *2 acyl side, *3 side chain or, on linkers, in order; H or OH if unused. Where a SMILES comes first, the peptide text is derived from it. Bridges are numbered along the chain shown (N, C = ends). [ ]: non-standard residue; d: D form. The star is where a group is joined. ξ: configuration not given here. X1 = CC[C@H](C)[C@@H](N[*:1])[C@@H](O)CC(=O)O[C@H](C(=O)[C@H](C)C(=O)[*:2])C(C)C; X2 = CC[C@H](C)[C@@H](N[*:1])[C@@H](O)CC(=O)[*:2]; X4 = CC(C)[C@H](N[*:1])C(=O)[C@H](C)C(=O)[*:2]; X3 = C[C@H](O[Si](C)(C)C(C)(C)C)C(=O)*; NMeY = CN[C@@H](Cc1ccc(O)cc1)C(=O)O; dNMeL = CN[C@H](CC(C)C)C(=O)O; Hiv = CC(C)[C@H](O)C(=O)O; Pyruvoyl = CC(=O)C(=O)*; Cbz = O=C(OCc1ccccc1)*; ξP = O=C(O)C1CCCN1

Assays:
[1] = test system: HT-29 human colon carcinoma; test: Cytotoxicity IC50 (after Berjeron et al)
Text: (§1) Methodology: after Berjeron et al, Biochem and Bioph Res. Comm., 1984, 121, 3, 848-854.

[2] = test system: A549 human lung carcinoma; test: Cytotoxicity IC50 (after Berjeron et al)
Text: as §1

[3] = test system: P388 Murine lymphoma; test: Cytotoxicity IC50 (after Berjeron et al)
Text: as §1

[4] = test system: MEL-28 human melanoma; test: Cytotoxicity IC50 (after Berjeron et al)
Text: as §1

[5] = test system: DU145 human prostate carcinoma; test: Cytotoxicity IC50 (after Berjeron et al); format: cell-based
Text: P388=Murine lymphoma. A549=human lung carcinoma. HT-29=human colon carcinoma. MEL-28=human melanoma. DU145=human prostate carcinoma
Chem. 2000, 65, 782-792. Their synthesis was published before their discovery (l): Org. […] A549=human lung carcinoma. HT-29=human colon carcinoma. MEL-28=human melanoma. DU145=human prostate carcinoma

[6] = test system: tumor cells; test: In vitro antitumor activity; format: cell-based
[7] = Homo sapiens, HT-29, read-out: Cytotoxicity of aplidine derivatives IC50 (Molar) HT29
[8] = Homo sapiens, A549, read-out: Cytotoxicity of aplidine derivatives IC50 (Molar) A549
[9] = Mus musculus, P388, read-out: Cytotoxicity of aplidine derivatives IC50 (Molar) P388
[10] = Homo sapiens, SK-MEL-28, read-out: Cytotoxicity of aplidine derivatives IC50 (Molar) MEL28
[11] = read-out: Cytotoxicity of aplidine derivatives IC50 (Molar) HT29, HT29
[12] = read-out: Cytotoxicity of aplidine derivatives IC50 (Molar) A549, A549
[13] = DU145, read-out: Cytotoxicity of aplidine derivatives IC50 (Molar) DU145
[14] = read-out: Cytotoxicity of aplidine derivatives IC50 (Molar) P388, P388
[15] = read-out: Cytotoxicity of aplidine derivatives IC50 (Molar) MEL28, MEL28

Compound	IC50 [1, 7] [nM]	IC50 [2, 8] [nM]	IC50 [1, 11] [nM]	IC50 [2, 12] [nM]	further results
CC[C@H](C)[C@H]1NC(=O)[C@@H](NC(=O)[C@@H](CC(C)C)N(C)C(=O)C2CCCN2C(=O)[C@H](C)O[Si](C)(C)C(C)(C)C)[C@@H](C)OC(=O)[C@H](Cc2ccc(OC)cc2)N(C)C(=O)[C@@H]2CCCN2C(=O)[C@H](CC(C)C)NC(=O)[C@H](C(C)C)NC(=O)C[C@@H]1O (stereo partly drawn) [9LSVPL2(L), [Val]^3-[L-Lac(OTBDMS)]^9-aplidine] (X3-[ξP][dNMeL]T[X2]VLP[NMeY](Me); ester 3-C)	8.55	10.2	–	–	–
C=C(C)C(=O)N1CCC[C@]12CCN([C@H](CC(C)C)C(=O)N[C@@H]1C(=O)N[C@H]([C@@H](C)CC)[C@@H](O)CC(=O)O[C@@H](C(C)C)C(=O)N[C@@H](CC(C)C)C(=O)N3CCC[C@H]3C(=O)N(C)[C@@H](Cc3ccc(OC)cc3)C(=O)O[C@@H]1C)C2=O [9SASHPL1]	93.9	93.9	–	–	–
CC[C@H](C)[C@H]1NC(=O)[C@@H](NC(=O)[C@@H](CC(C)C)N2CC[C@]3(CCCN3C(=O)OC(C)(C)C)C2=O)[C@@H](C)OC(=O)[C@H](Cc2ccc(OC)cc2)N(C)C(=O)[C@@H]2CCCN2C(=O)[C@H](CC(C)C)NC(=O)[C@@H](C)C(=O)[C@H](C(C)C)OC(=O)C[C@@H]1O [9SBSAPL1, [(5R)-1-(tert-buthoxycarbonyl)-7-[(1R)-1-carboxy-3-methylbutyl]-6-oxo-1,7-diazaspiro[4,4]nonane]^7-9-aplidine]	8.68	8.68	–	–	–
CC[C@H](C)[C@H]1NC(=O)[C@@H](NC(=O)[C@@H](CC(C)C)N2CC[C@]3(CCCN3C(=O)OC(C)(C)C)C2=O)[C@@H](C)OC(=O)[C@H](Cc2ccc(OC)cc2)N(C)C(=O)[C@@H]2CCCN2C(=O)[C@H](CC(C)C)NC(=O)[C@H](C(C)C)OC(=O)C[C@@H]1O [9SBSHPL1]	4.56	4.56	–	–	–
CC[C@H](C)[C@H]1NC(=O)[C@@H](NC(=O)[C@@H](CC(C)C)N2CC[C@]3(CCCN3C(=O)C(C)C)C2=O)[C@@H](C)OC(=O)[C@H](Cc2ccc(OC)cc2)N(C)C(=O)[C@@H]2CCCN2C(=O)[C@H](CC(C)C)NC(=O)[C@@H](C)C(=O)[C@H](C(C)C)OC(=O)C[C@@H]1O [9SISAPL1, [(5R)-1-(isobutiryl)-7-[(R)-1-carboxy-3-methylbutyl]-6-oxo-1,7-diazaspiro[4,4]nonane]^7-9-Aplidine]	89.1	89.1	–	–	–
CC[C@H](C)[C@H]1NC(=O)[C@@H](NC(=O)[C@@H](CC(C)C)N2CC[C@]3(CCCN3C(=O)C(C)C)C2=O)[C@@H](C)OC(=O)[C@H](Cc2ccc(OC)cc2)N(C)C(=O)[C@@H]2CCCN2C(=O)[C@H](CC(C)C)NC(=O)[C@H](C(C)C)OC(=O)C[C@@H]1O [9SISHPL1, [Hiv]^3-[(5R)-1-(tert-buthoxycarbonyl)-7-[(1R)-1-carboxy-3-methylbutyl]-6-oxo-1,7-diazaspiro[4,4]nonane]^7-9-aplidine]	93.8	93.8	–	–	–
CC[C@H](C)[C@H]1NC(=O)[C@@H](NC(=O)[C@@H](CC(C)C)N2CC[C@]3(CCCN3C(=O)C(C)=O)C2=O)[C@@H](C)OC(=O)[C@H](Cc2ccc(OC)cc2)N(C)C(=O)[C@@H]2CCCN2C(=O)[C@H](CC(C)C)NC(=O)[C@@H](C)C(=O)[C@H](C(C)C)OC(=O)C[C@@H]1O [9SPSAPL1, [(5R)-1-(pyruvyl)-7-[(1R)-1-carboxy-3-methylbutyl]-6-oxo-1,7-diazaspiro[4,4]nonane]^7-9-aplidine]	8.9	8.55	–	–	–
CC[C@H](C)[C@H]1NC(=O)[C@@H](NC(=O)[C@@H](CC(C)C)N2CC[C@]3(CCCN3C(=O)C(C)=O)C2=O)[C@@H](C)OC(=O)[C@H](Cc2ccc(OC)cc2)N(C)C(=O)[C@@H]2CCCN2C(=O)[C@H](CC(C)C)NC(=O)[C@H](C(C)C)OC(=O)C[C@@H]1O [9SPSHPL1, [Hiv]^3-[(5R)-1-(pyruvyl)-7-[(1R)-1-carboxy-3-methylbutyl]-6-oxo-1,7-diazaspiro[4,4]nonane]^7-9-aplidine]	93.8	93.8	–	–	–
CC[C@H](C)[C@H]1NC(=O)[C@@H](NC(=O)[C@@H](CC(C)C)NC)[C@@H](C)OC(=O)[C@H](Cc2ccc(OC)cc2)N(C)C(=O)[C@@H]2CCCN2C(=O)[C@H](CC(C)C)NC(=O)[C@@H](C)C(=O)[C@H](C(C)C)OC(=O)C[C@@H]1O [SAPL2, Didemnin A, reference compound] (H-[dNMeL]T[X1]LP[NMeY](Me); ester 2-C)	8.48	4.24	–	–	IC50 [3, 9]: 5.3 nM; IC50 [4, 10]: 1.13 nM
CC[C@H](C)[C@H]1NC(=O)[C@@H](NC(=O)[C@@H](CC(C)C)N(C)C(=O)OCc2ccccc2)[C@@H](C)OC(=O)[C@H](Cc2ccc(OC)cc2)N(C)C(=O)[C@@H]2CCCN2C(=O)[C@H](CC(C)C)NC(=O)[C@@H](C)C(=O)[C@H](C(C)C)OC(=O)C[C@@H]1O [SAPL3, Z-Didemnin A] (Cbz-[dNMeL]T[X1]LP[NMeY](Me); ester 2-C)	4.64	2.32	–	–	IC50 [3, 9]: 9.3 nM; IC50 [4, 10]: 4.64 nM
CC[C@H](C)[C@H]1NC(=O)[C@@H](NC(=O)[C@@H](CC(C)C)NC)[C@@H](C)OC(=O)[C@H](Cc2ccc(OC)cc2)N(C)C(=O)[C@@H]2CCCN2C(=O)[C@H](CC(C)C)NC(=O)[C@H](C(C)C)OC(=O)C[C@@H]1O [SHPL2, [Hiv]^3-Didemnin A] (H-[dNMeL]T[X2][Hiv]LP[NMeY](Me); ester 2-C)	1.13	1.13	–	–	IC50 [3, 9]: 1.1 nM; IC50 [4, 10]: 1.13 nM
CC[C@H](C)[C@H]1NC(=O)[C@@H](NC(=O)[C@@H](CC(C)C)N(C)C(=O)[C@@H]2CCCN2C(=O)C(C)=O)[C@@H](C)OC(=O)[C@H](Cc2ccc(OC)cc2)N(C)C(=O)[C@@H]2CCCN2C(=O)[C@H](CC(C)C)NC(=O)[C@@H](C)C(=O)[C@H](C(C)C)NC(=O)C[C@@H]1O [SNPL1, [Aip]^3-Aplidine] (Pyruvoyl-P[dNMeL]T[X2][X4]LP[NMeY](Me); ester 3-C)	–	–	–	–	IC50 ([1]; Homo sapiens, HT-29, read-out: Cytotoxicity of [aa3]-aplidine Congeners IC50 (Molar) HT29): 0.901 nM; IC50 ([2]; Homo sapiens, A549, read-out: Cytotoxicity of [aa3]-aplidine Congeners IC50 (Molar) A549): 0.901 nM
CC[C@H](C)[C@H]1NC(=O)[C@@H](NC(=O)[C@@H](CC(C)C)NC)[C@@H](C)OC(=O)[C@H](Cc2ccc(OC)cc2)N(C)C(=O)[C@@H]2CCCN2C(=O)[C@H](CC(C)C)NC(=O)[C@@H](C)C(=O)[C@H](C(C)C)NC(=O)C[C@@H]1O [SNPL2, [Aip]^3-Didemnin A] (H-[dNMeL]T[X2][X4]LP[NMeY](Me); ester 2-C)	10.6	10.6	–	–	–
CC[C@H](C)[C@H]1NC(=O)[C@@H](NC(=O)[C@@H](CC(C)C)N(C)C(=O)OCc2ccccc2)[C@@H](C)OC(=O)[C@H](Cc2ccc(OC)cc2)N(C)C(=O)[C@@H]2CCCN2C(=O)[C@H](CC(C)C)NC(=O)[C@@H](C)C(=O)[C@H](C(C)C)NC(=O)C[C@@H]1O [SNPL3, [Aip]^3 Z-Didemnin A] (Cbz-[dNMeL]T[X2][X4]LP[NMeY](Me); ester 2-C)	0.0929	0.0929	–	–	–
CC[C@H](C)[C@H]1NC(=O)[C@@H](NC(=O)[C@@H](CC(C)C)NC)[C@@H](C)OC(=O)[C@H](Cc2ccc(OC)cc2)N(C)C(=O)[C@@H]2CCCN2C(=O)[C@H](CC(C)C)NC(=O)[C@H](C(C)C)NC(=O)C[C@@H]1O [SVPL2, [Val]^3-Didemnin A] (H-[dNMeL]T[X2]VLP[NMeY](Me); ester 2-C)	1.13	1.13	–	–	IC50 ([5]; Homo sapiens, DU-145, read-out: Cytotoxicity of aplidine derivatives IC50 (Molar) DU145): 1.13 nM; IC50 [3, 9]: 1.1 nM; IC50 [4, 10]: 1.13 nM
[Gly]^8-[coumarin]^9-didemnin A [8G9CSAPL1]	–	–	4.26	4.26	–
[Hiv]^3 Z-Didemnin A [SHPL3]	–	–	4.9	4.9	IC50 [5, 13]: 4.9 nM; IC50 [3, 14]: 4.9 nM; IC50 [4, 15]: 4.9 nM
[Hiv]^3-[Ala]^9 aplidine [9ASHPL1]	–	–	0.916	0.916	–
[Hiv]^3-[D-Lac(OTBDMS)]^9-aplidine [9LSHPL2(D)]	–	–	85.5	85.5	–
[Hiv]^3-[NVa-Pro]^9-aplidine [9NVSHPL1]	–	–	0.923	0.923	–
[Hiv]^3-[Pro]^8-didemnin A [8PSHPL1]	–	–	1.01	1.01	–
[Hiv]^3-[Z-Ala]^9-aplidine [9ZASHPL2]	–	–	4.21	4.21	–
[Hiv]^3-[Z-NVa-Pro]^9-aplidine [9NVSHPL2]	–	–	8.22	8.22	–
[MeVal]^3-aplidine	–	–	–	–	in vitro antitumor activity [6]: high level of in vitro antitumor activity
[NVa-Pro]^9-aplidine [9NVSAPL1]	–	–	0.439	0.439	–
[Val]^3 Z-Didemnin A [SVPL3]	–	–	0.98	0.98	IC50 [5, 13]: 0.98 nM; IC50 [3, 14]: 0.98 nM; IC50 [4, 15]: 0.98 nM
[ZNVa-Pro]^9-aplidine [9NVSAPL2]	–	–	3.93	3.93	IC50 [5, 13]: 3.93 nM; IC50 [3, 14]: 7.9 nM; IC50 [4, 15]: 3.93 nM
[coumarin]^8-didemnin A [8CSAPL1]	–	–	0.941	0.941	–
